Where two headings read alike, the source gives them in different places.
Legend:
T47D cells = test: Cell-based killing assay of payloads (CellTiter-Glo), T47D cells; design: species or system human; settings: 5-day incubation; for IC50: Homo sapiens, T47D, 120 h; for T47D % Kill: at maximum concentration tested
Procedure: (§1) To test the ability of the disclosed tubulysin payloads to kill human cell lines, an in vitro cytotoxicity assay was performed. In vitro cytotoxicity of the disclosed payloads, as well as reference compounds, were evaluated using the CellTiter-Glo Assay Kit (Promega, Cat #G7573), in which the quantity of ATP present is used to determine the number of viable cells in culture. For the assay, C4-2, HEK293, or T47D cells were seeded at 4000 cells/well on Nunclon white 96-well plates in complete growth medium (DME high glucose:Ham's F12 at 4:1, 10% FBS, 100 units/ml Penicillin, 100 ug/ml streptomycin, 53 ug/ml glutatmine, 10 ug/ml insulin, 220 ng/ml biotin, 12.5 pg/ml T3, 12.5 ug/ml Adenine, 4 ug/ml transferrin for C42 cells; DME high glucose, 10% FBS, 100 units/ml Penicillin, 100 ug/ml streptomycin, 53 ug/ml glutatmine for HEK293; RPMI, 10% FBS, 100 units/ml Penicillin, 100 ug/ml streptomycin, 53 ug/ml glutatmine, 10 ug/ml insulin, 10 mM HEPEs, 200 nM Sodium Pyruvate for T47D cells) and grown overnight at 37° C. in 5% CO2. For cell viability curves, 1:3 serially diluted payloads were added to the cells at final concentrations ranging from 100 nM to […], including a no treatment control group, and were then incubated for 5 days. After the 5-day incubation, cells were incubated at room temperature with 100 μL of CellTiter-Glo reagents for 10 minutes. Relative luminescence units (RLU) were determined on a Victor plate reader (PerkinElmer). The IC50 values were determined from a four-parameter logistic equation over a 10-point response curve (GraphPad Prism). All IC50 values are expressed in molar (M) concentration. The percent cell killing (% kill) at the maximum concentration tested was estimated from the following formula (100−% viable cells). Averages±standard deviation (SD) are included where replicate experiments were performed.

HCT15 cells = test: cells; assay type: cell-based, human; settings: HCT15 cells; for HCT-15 + verapamil % Kill / HCT-15 % Kill: maximum % cell killing
Outline: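 HCT15 colorectal carcinoma cells, 1000 per well in RPMI/10% FBS, with or without 5 ug/mL verapamil, exposed to 1:3 serially diluted payloads for 5 days at 37 °C. Viability measured by CellTiter-Glo ATP luminescence; IC50 from four-parameter logistic fit of a 10-point curve, % kill at top concentration.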

C4-2 cells = test: Cell-based killing assay of payloads (CellTiter-Glo), C4-2 cells; design: species or system human; settings: 5-day incubation; for IC50: Homo sapiens, C4-2, 120 h, average ± SD where replicates; for C4-2 % Kill: at maximum concentration tested (100 − % viable cells)
Outline: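 Cells plated at 4000/well in line-specific complete medium, grown overnight, then exposed to 1:3 serial dilutions of payload (100 nM to […]) for 5 days. ATP-based CellTiter-Glo luminescence read; IC50 from four-parameter logistic 10-point fit, and % kill at top concentration as 100 − % viable.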

HEK293 cells = test: Cell-based killing assay of payloads (CellTiter-Glo), HEK293 cells; design: species or system human; settings: 5-day incubation; for IC50: Homo sapiens, HEK293, 120 h; for HEK293 % Kill: at maximum concentration tested
Procedure: as §1

MES-SA/MX2 cells = test: Cytotoxicity in panel of MDR cell lines, MES-SA/MX2 (72 h and 144 h); assay type: cell-based, human; settings: for IC50: Homo sapiens
Outline: (§2)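 Four-parameter logistic fitting of 10-point CellTiter-Glo curves gives the IC50, expressed molar. Cells, including resistant H69AR, MES-SA/MX2 and HL60/MX2 plus HCT-15, are plated at 1000/well and exposed to payloads for 72 h and 144 h.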

HL60/MX2 cells = test: Cytotoxicity in panel of MDR cell lines, HL60/MX2 (72 h and 144 h); assay type: cell-based, human; settings: for IC50: Homo sapiens
Outline: as §2

H69AR cells = test: Cytotoxicity in panel of MDR cell lines, H69AR (72 h and 144 h); assay type: cell-based, human; settings: for IC50: Homo sapiens
Outline: as §2

HCT-15 cells = test: Cytotoxicity in panel of MDR cell lines, HCT-15 (72 h and 144 h); assay type: cell-based, human; settings: for IC50: Homo sapiens
Outline: as §2

[1] = with 5 ug/mL Verapamil, read-out: HCT-15 + verapamil IC50
[2] = Homo sapiens, HCT-15, without Verapamil, read-out: HCT-15 IC50
[3] = 72 h incubation, read-out: MES-SA/MX2 IC50 72 h
[4] = 144 h incubation, read-out: MES-SA/MX2 IC50 144 h
[5] = 72 h incubation, read-out: HL60/MX2 IC50 72 h
[6] = 144 h incubation, read-out: HL60/MX2 IC50 144 h
[7] = 72 h incubation, read-out: H69AR IC50 72 h
[8] = 144 h incubation, read-out: H69AR IC50 144 h
[9] = 72 h incubation, read-out: HCT-15 IC50 72 h
[10] = 144 h incubation, read-out: HCT-15 IC50 144 h

Row | SMILES | IC50 (T47D cells) [nM] | T47D % Kill (T47D cells) [%] | HCT-15 + verapamil % Kill (HCT15 cells; with 5 ug/mL Verapamil) [%] | IC50 (HCT15 cells; [1]) [nM] | HCT-15 % Kill (HCT15 cells; without Verapamil) [%] | IC50 (HCT15 cells; [2]) [nM] | IC50 (C4-2 cells) [nM] | C4-2 % Kill (C4-2 cells) [%] | IC50 (HEK293 cells) [nM] | HEK293 % Kill (HEK293 cells) [%] | other results
1 | C#CCCCON(C(=O)[C@@H](NC(=O)[C@H]1CCCCN1C)[C@@H](C)CC)[C@H](C[C@@H](OC(C)=O)c1nc(C(=O)N[C@@H](Cc2ccc(F)cc2)C[C@H](C)C(=O)O)cs1)C(C)C [Vf, (2S,4R)-4-({2-[(1R,3R)-1-(Acetyloxy)-4-methyl-3-[(2S,3S)-3-methyl-2-{[(2R)-1-methylpiperidin-2-yl]formamido}-N-(pent-4-yn-1-yloxy)pentanamido]pentyl]-1,3-thiazol-4-yl}formamido)-5-(4-fluorophenyl)-2-methylpentanoic acid] | 0.396 | 68 | 98 | 0.375 | 96.5 | 3.36 | 0.9 | 90 | 0.666 | 83.8 | 
2 | CC[C@H](C)[C@H](NC(=O)[C@H]1CCCCN1C)C(=O)N(OCCCOCc1ccc(N)cc1)[C@H](C[C@@H](OC(C)=O)c1nc(C(=O)N[C@@H](Cc2ccc(O)cc2)C[C@H](C)C(=O)O)cs1)C(C)C [Vj, (2S,4R)-4-(2-((8R,10R)-1-(4-Aminophenyl)-8-isopropyl-7-((2S,3S)-3-methyl-2-((R)-1-methylpiperidine-2-carboxamido)pentanoyl)-12-oxo-2,6,11-trioxa-7-azatridecan-10-yl)thiazole-4-carboxamido)-5-(4-hydroxyphenyl)-2-methylpentanoic acid] | > 100 | 14.6 | 77.4 | 39.2 | −3.8 | > 100 | 53.1 | 68.5 ± 39.2 | > 100 | 4.7 | 
3 | CC[C@H](C)[C@H](NC(=O)[C@H]1CCCCN1C)C(=O)N(OCCCO)[C@H](C[C@@H](OC(C)=O)c1nc(C(=O)N[C@@H](Cc2ccc(O)cc2)C[C@H](C)C(=O)O)cs1)C(C)C [Vk, (2S,4R)-4-(2-((1R,3R)-1-Acetoxy-3-((2S,3S)—N-(3-hydroxypropoxy)-3-methyl-2-((R)-1-methylpiperidine-2-carboxamido)pentanamido)-4-methylpentyl)thiazole-4-carboxamido)-5-(4-hydroxyphenyl)-2-methylpentanoic acid] | > 100 |  | 83 | 42.7 | 41.5 | ≥ 100 |  |  | > 100 |  | 
4 | C#CCCCON(C(=O)[C@@H](NC(=O)[C@H]1CCCCN1C)[C@@H](C)CC)[C@H](C[C@@H](OC(C)=O)c1nc(C(=O)N[C@@H](Cc2ccc(F)cc2)CC(C)(C)C(=O)O)cs1)C(C)C [Vd, (4S)-4-({2-[(1R,3R)-1-(Acetyloxy)-4-methyl-3-[(2S,3S)-3-methyl-2-{[(2R)-1-methylpiperidin-2-yl]formamido}-N-(pent-4-yn-1-yloxy)pentanamido]pentyl]-1,3-thiazol-4-yl}formamido)-5-(4-fluorophenyl)-2,2-dimethylpentanoic acid] | 0.444 | 66 | 98.7 | 0.352 | 99.7 | 1.93 | 0.384 | 91.3 | 0.59 | 86.3 | 
5 | CCCCCCON(C(=O)[C@@H](NC(=O)[C@H]1CCCCN1C)[C@@H](C)CC)[C@H](C[C@@H](OC(=O)NCC)c1nc(C(=O)N[C@@H](Cc2ccc(O)cc2)C[C@H](C)C(=O)O)cs1)C(C)C [VIb, (2S,4R)-5-(4-hydroxyphenyl)-4-(2-((6R,8R)-8-isopropyl-9-((2S,3S)-3-methyl-2-((R)-1-methylpiperidine-2-carboxamido)pentanoyl)-4-oxo-5,10-dioxa-3,9-diazahexadecan-6-yl)thiazole-4-carboxamido)-2-methylpentanoic acid] | 13.6 | 76.2 | 97.8 | 2.88 | 54.7 | > 50 | 12 | 96.5 | 20.3 | 75.4 | 
6 | CCCCCCN(C(=O)[C@@H](NC(=O)[C@H]1CCCCN1C)[C@@H](C)CC)[C@H](C[C@@H](OC(C)=O)c1nc(C(=O)N[C@@H](Cc2ccc(N)c(F)c2)CC(C)(C)C(=O)O)cs1)C(C)C [IVvB, 4-({2-[(1R,3R)-1-(Acetyloxy)-3-[(2S,3S)—N-hexyl-3-methyl-2-{[(2R)-1-methylpiperidin-2-yl]formamido}pentanamido]-4-methylpentyl]-1,3-thiazol-4-yl}formamido)-5-(4-amino-3-fluorophenyl)-2,2-dimethylpentanoic acid] |  |  | 97.7 | 0.015 | 97.3 | 0.025 | 0.0215 | 94.6 |  |  | MES-SA/MX2 % Kill 72 h (MES-SA/MX2 cells; 72 h incubation): 99.1%; MES-SA/MX2 % Kill 144 h (MES-SA/MX2 cells; 144 h incubation): 99.9%; IC50 (MES-SA/MX2 cells; [3]): 0.0456 nM; IC50 (MES-SA/MX2 cells; [4]): 0.0658 nM; HL60/MX2 % Kill 72 h (HL60/MX2 cells; 72 h incubation): 98.2%; HL60/MX2 % Kill 144 h (HL60/MX2 cells; 144 h incubation): 99.8%; IC50 (HL60/MX2 cells; [5]): < 0.015 nM; IC50 (HL60/MX2 cells; [6]): < 0.015 nM; H69AR % Kill 72 h (H69AR cells; 72 h incubation): 96.9%; H69AR % Kill 144 h (H69AR cells; 144 h incubation): 99.1%; IC50 (H69AR cells; [7]): 0.0599 nM; IC50 (H69AR cells; [8]): 0.158 nM; HCT-15 % Kill 72 h (HCT-15 cells; 72 h incubation): 97.7%; HCT-15 % Kill 144 h (HCT-15 cells; 144 h incubation): 99.6%; IC50 (HCT-15 cells; [9]): < 0.015 nM; IC50 (HCT-15 cells; [10]): 0.0228 nM
7 | [2H]c1cc(C[C@@H](CC(C)(C)C(=O)O)NC(=O)c2csc([C@@H](C[C@H](C(C)C)N(CCCCCC)C(=O)[C@@H](NC(=O)[C@H]3CCCCN3C)[C@@H](C)CC)OC(C)=O)n2)cc([2H])c1N [IVs, (S)-4-(2-((1R,3R)-1-Acetoxy-3-((2S,3S)—N-hexyl-3-methyl-2-((R)-1-methylpiperidine-2-carboxamido)pentanamido)-4-methylpentyl)thiazole-4-carboxamido)-5-(4-aminophenyl-3,5-d2)-2,2-dimethylpentanoic acid] |  |  | 98.8 | 0.0459 | 99.1 | 0.108 | 0.0499 | 93.8 |  |  | MES-SA/MX2 % Kill 72 h (MES-SA/MX2 cells; 72 h incubation): 99.2%; MES-SA/MX2 % Kill 144 h (MES-SA/MX2 cells; 144 h incubation): 100%; IC50 (MES-SA/MX2 cells; [3]): 0.102 nM; IC50 (MES-SA/MX2 cells; [4]): 0.21 nM; HL60/MX2 % Kill 72 h (HL60/MX2 cells; 72 h incubation): 98.4%; HL60/MX2 % Kill 144 h (HL60/MX2 cells; 144 h incubation): 100%; IC50 (HL60/MX2 cells; [5]): < 0.015 nM; IC50 (HL60/MX2 cells; [6]): < 0.015 nM; H69AR % Kill 72 h (H69AR cells; 72 h incubation): 96.8%; H69AR % Kill 144 h (H69AR cells; 144 h incubation): 99.4%; IC50 (H69AR cells; [7]): 0.161 nM; IC50 (H69AR cells; [8]): 0.281 nM; HCT-15 % Kill 72 h (HCT-15 cells; 72 h incubation): 97.6%; HCT-15 % Kill 144 h (HCT-15 cells; 144 h incubation): 99.7%; IC50 (HCT-15 cells; [9]): 0.0371 nM; IC50 (HCT-15 cells; [10]): 0.0501 nM
